Test results reported in ChEMBL document CHEMBL4351004, “New 3-tetrazolyl-β-carbolines and β-carboline-3-carboxylates with anti-cancer activity” (2019).

What was measured:
Format in all cases: functional
[1] = test system: NCI-H460; experiment: Antiproliferative activity against human NCI-H460 cells assessed as growth inhibition after 48 hrs by sulforhodamine B assay; settings: NCI-H460, 48 h
[2] = test system: MCF7; experiment: Antiproliferative activity against human MCF7 cells assessed as growth inhibition after 48 hrs by sulforhodamine B assay; settings: MCF7, 48 h
[3] = test system: 786-0; experiment: Antiproliferative activity against human 786-0 cells assessed as growth inhibition after 48 hrs by sulforhodamine B assay; settings: 786-0, 48 h
[4] = test system: K562; experiment: Antiproliferative activity against human K562 cells assessed as growth inhibition after 48 hrs by sulforhodamine B assay; settings: K562, 48 h
[5] = test system: HT-29; experiment: Antiproliferative activity against human HT-29 cells assessed as growth inhibition after 48 hrs by sulforhodamine B assay; settings: HT-29, 48 h
[6] = Antiproliferative activity against human UACC61 cells assessed as growth inhibition after 48 hrs by sulforhodamine B assay
[7] = test system: NCI/ADR-RES; experiment: Antiproliferative activity against human NCI-ADR-RES cells assessed as growth inhibition after 48 hrs by sulforhodamine B assay
[8] = test system: OVCAR-3; experiment: Antiproliferative activity against human OVCAR3 cells assessed as growth inhibition after 48 hrs by sulforhodamine B assay; settings: OVCAR-3, 48 h
[9] = test system: PC-3; experiment: Antiproliferative activity against human PC3 cells assessed as growth inhibition after 48 hrs by sulforhodamine B assay; settings: PC-3, 48 h
[10] = test system: U-251; experiment: Antiproliferative activity against human U251 cells assessed as growth inhibition after 48 hrs by sulforhodamine B assay; settings: U-251, 48 h

| Structure (SMILES) | GI50 [1] | GI50 [2] | GI50 [3] | GI50 [4] | GI50 [5] | GI50 [6] | GI50 [7] | GI50 [8] | GI50 [9] | GI50 [10] |
| --- | --- | --- | --- | --- | --- | --- | --- | --- | --- | --- |
| COC(=O)c1cc2c([nH]c3ccccc32)c(-c2ccccc2)n1 | > 100 µM | > 100 µM | > 100 µM | > 100 µM | > 100 µM | 5.45 µM | > 100 µM | > 100 µM | > 100 µM | – |
| COC(=O)c1cc2c([nH]c3ccccc32)c(-c2ccccc2Cl)n1 | 26.8 µM | 36.4 µM | 42.4 µM | 13.5 µM | 25.3 µM | 5.76 µM | 27.6 µM | 21.6 µM | 22.3 µM | – |
| CCOC(=O)c1cc2c([nH]c3ccc(OC)cc32)c(-c2ccc(N(C)C)cc2)n1 | 12.7 µM | > 100 µM | 1.4 µM | > 100 µM | > 100 µM | 0.28 µM | 4.29 µM | > 100 µM | 7.74 µM | 0.95 µM |
| CCOC(=O)c1cc2c([nH]c3ccc(OC)cc32)c(-c2ccc(O)cc2)n1 | 6.95 µM | 6.57 µM | 7.51 µM | 4.36 µM | 7.74 µM | > 100 µM | 6.54 µM | 0.66 µM | 3.28 µM | 7.26 µM |
| COc1ccc(-c2nc(-c3nnnn3Cc3ccccc3)cc3c2[nH]c2ccccc23)cc1 | 1.59 µM | 1.32 µM | 2.17 µM | 7.14 µM | 18.3 µM | 88.1 µM | 2.7 µM | 1.62 µM | 5.73 µM | 3.82 µM |
| COC(=O)c1cc2c([nH]c3ccccc32)c(-c2ccc(OC)cc2)n1 | 0.38 µM | 52.7 µM | 32.7 µM | 0.04 µM | 24.8 µM | 2.61 µM | 1.11 µM | 39.4 µM | 10.2 µM | – |
| CCOC(=O)c1cc2c([nH]c3ccc(OC)cc32)c(-c2ccccc2)n1 | > 100 µM | 79.6 µM | > 100 µM | > 100 µM | > 100 µM | > 100 µM | > 100 µM | > 100 µM | > 100 µM | > 100 µM |
| CCOC(=O)c1cc2c([nH]c3ccc(C)cc32)c(-c2ccc(OC)cc2)n1 | 11.6 µM | 32.2 µM | 4.27 µM | 25.1 µM | 80.1 µM | 23.3 µM | 41.6 µM | 0.61 µM | > 100 µM | 7.07 µM |
| CCOC(=O)c1cc2c([nH]c3ccc(OC)cc32)c(-c2cccc([N+](=O)[O-])c2)n1 | > 100 µM | > 100 µM | > 100 µM | > 100 µM | > 100 µM | 19.7 µM | > 100 µM | > 100 µM | > 100 µM | > 100 µM |
| CCOC(=O)c1cc2c([nH]c3ccc(OC)cc32)c(-c2ccccc2Cl)n1 | 65.6 µM | > 100 µM | 12.2 µM | > 100 µM | > 100 µM | 7.71 µM | > 100 µM | > 100 µM | > 100 µM | 22.1 µM |
| CCOC(=O)c1cc2c([nH]c3ccc(OC)cc32)c(-c2ccc(OC)cc2)n1 | 74.8 µM | > 100 µM | 20.9 µM | > 100 µM | > 100 µM | > 100 µM | > 100 µM | > 100 µM | > 100 µM | 70.8 µM |
| Fc1ccc(-c2nc(-c3nnn[nH]3)cc3c2[nH]c2ccccc23)cc1 | 14.8 µM | 10.1 µM | 64.5 µM | 10.7 µM | 25.6 µM | 63.3 µM | 36.6 µM | 0.27 µM | 71.8 µM | 8.17 µM |
| c1ccc(Cn2nnnc2-c2cc3c([nH]c4ccccc43)c(-c3ccccc3)n2)cc1 | 31.9 µM | 4.4 µM | 70.6 µM | 27.4 µM | > 100 µM | 37 µM | 71 µM | > 100 µM | > 100 µM | 63.5 µM |
| Fc1ccc(-c2nc(-c3nnnn3Cc3ccccc3)cc3c2[nH]c2ccccc23)cc1 | 20.2 µM | 1.04 µM | 0.69 µM | 0.69 µM | 6.51 µM | > 100 µM | 2.07 µM | 0.57 µM | 6.11 µM | 1.38 µM |
| COC(=O)c1cc2c([nH]c3ccccc32)c(-c2cccc([N+](=O)[O-])c2)n1 | > 100 µM | > 100 µM | 31.7 µM | 3.05 µM | > 100 µM | 7.02 µM | > 100 µM | > 100 µM | > 100 µM | – |
| COC(=O)c1cc2c([nH]c3ccccc32)c(-c2ccc(N(C)C)cc2)n1 | 15.3 µM | 36.8 µM | 20.4 µM | 21.8 µM | 34 µM | 3.61 µM | 11.6 µM | 28.4 µM | 9.56 µM | – |
| COC(=O)c1cc2c([nH]c3ccccc32)c(-c2ccc(O)cc2)n1 | 28.5 µM | 27.5 µM | 29.5 µM | > 100 µM | 25.1 µM | 12 µM | 25.7 µM | 21.1 µM | 20.7 µM | – |
| CCOC(=O)c1cc2c([nH]c3ccc(C)cc32)c(-c2ccccc2)n1 | 6.96 µM | 5.08 µM | 10.8 µM | 1.24 µM | 7.14 µM | 28.2 µM | 2.66 µM | 0.6 µM | 20.6 µM | 7.44 µM |
| COc1cccc2c1C(=O)c1c(O)c3c(c(O)c1C2=O)C[C@@](O)(C(=O)CO)C[C@@H]3O[C@H]1C[C@H](N)[C@H](O)[C@H](C)O1 [DOXORUBICIN] | 0.37 µM | 0.073 µM | 0.15 µM | 1.11 µM | 2.58 µM | 0.047 µM | 1.44 µM | 0.0087 µM | 0.74 µM | 0.21 µM |
